Earlier results in patent publication US10260097B2, “Method of using a gene expression profile to determine cancer responsiveness to an anti-angiogenic agent” (Almac Diagnostics Limited, priority 2011, dated 2019).

How the values were obtained:
ovarian cancer patients = ovarian cancer patients receiving bevacizumab monotherapy
renal cancer patients = renal cancer patients receiving bevacizumab monotherapy
rectal cancer patients = rectal cancer patients receiving bevacizumab monotherapy
most cancers = conditions: bevacizumab added to cytotoxic chemotherapy

bevacizumab
patients showing partial regression (ovarian cancer patients): 21% | patients showing partial regression (renal cancer patients): 10% | patients showing partial regression (rectal cancer patients): 33% | overall survival (OS) benefit (most cancers): no overall survival (OS) benefit
